Laboratory results: ChEMBL document CHEMBL1154818, “Molecular modeling study of binding site selectivity of TQMP to G-quadruplex DNA” (Eur J Med Chem, 2010)

What was measured:
[1] = test system: Nucleic Acid; assay: Binding affinity to d(TTAGGG) sequence of G-quadruplex DNA; assay type: nucleic-acid assay
[2] = test system: Nucleic Acid; assay: Binding affinity to DNA duplex; assay type: nucleic-acid assay

| Structure (SMILES) | K [1] | K [2] |
| --- | --- | --- |
| C[N+](C)(C)Cc1cc(-c2c3nc(c(-c4ccc(O)c(C[N+](C)(C)C)c4)c4ccc([nH]4)c(-c4ccc(O)c(C[N+](C)(C)C)c4)c4nc(c(-c5ccc(O)c(C[N+](C)(C)C)c5)c5ccc2[nH]5)C=C4)C=C3)ccc1O | 1.12 ×10⁶ /mol | 3.18 ×10⁴ /mol |
| C[n+]1ccc(-c2c3nc(c(-c4cc[n+](C)cc4)c4ccc([nH]4)c(-c4cc[n+](C)cc4)c4ccc([nH]4)c(-c4cc[n+](C)cc4)c4nc2C=C4)C=C3)cc1 | 1.38 ×10⁷ /mol | 2.73 ×10⁶ /mol |
